Reference: patent publication US12403114B2, “Cannabinoid acid ester compositions and uses thereof” (EPM (IP), INC., priority 2019, dated 2025)
“Also recorded” adds a separate entry of the source.

What was measured:
[1] = system: Human hepatoma HepG2 cells; test: Fat accumulation in hepatocytes (Nile-Red); format: cell-based; settings: 0.3 mM oleic:palmitic acids, 24 hr; EPM-301 effect at high (50 and 10 μM) and low (0.025 and 0.001 μM) concentrations, bell-shaped (FIG. 37, 38)
Procedure: An in vitro model of fat accumulation in hepatocytes was used to test whether compounds EPM-301 and EPM-302 have the ability to reduce lipid accumulation in hepatocytes Human hepatoma HepG2 cells were maintained at 37° C. in 5% CO2 in DMEM medium supplemented with 10% FCS, 2 mM 1-glutamine, 1 mM sodium pyruvate, 100 U/mL penicillin and […] streptomycin. Free fatty acids (2:1, molar ratio, oleic and palmitic acids) were mixed with bovine serum albumin (BSA). Cells were incubated with fatty acid-BSA complex in FCS-free culture medium at 0.3 mM final concentration of fatty acid and 1% of BSA. Control cell cultures were incubated with medium containing the vehicle. Compounds were tested in a range of concentrations in the presence of fatty acids. After 24 hr of incubation with the compounds, the cells were washed, incubated with 1 μg/mL mixture of Nile-Red/Hoechst solution for 15 mins at 37° C. protected from light. Fluorescence was measured by the Cytation-3 plate reader at ex:488 nm/em:550 nm and ex:350 nm/em:461 nm for Nile-Red and Hoechst, respectively. Results were normalized to total protein levels of each well, and presented as a change in the accumulation of lipids in comparison with Vehicle-treated group.
[…] EPM-301 at 50 μM was used as positive control.
Values are expressed as mean±SEM. […]

[2] = system: DSS induced acute colitis; test: DSS induced acute colitis mouse model, EPM-301 versus EPM-302, Example 13; format: in vivo, C57BL/6 mice
Procedure: Colitis was induced in 10 weeks old female C57BL/6 mice using dextran sodium sulphate (DSS). Mice were fed for 8 days with 2% (wt/vol) DSS in their drinking water. […] EPM-302 served as an additional control.
Weight loss was measured on days 1, 3, 5, 8, and 10.
Next, the mice were sacrificed and the length of their colons were measured.
Cytokine levels of IL-6 and TNFα were measured using ELISA kits (R&D Systems, USA). Colon TNFα (FIG. 19), blood IL-6 (FIG. 20), levels were lower in mice treated with CBDA-Me (EPM-301) as compared to EPM-302. Similarly, the MEICS score of EPM-301 treated subjects were also lower than EPM-302 treated subjects (FIG. 21). Representative photos of colonoscopy can be seen in FIG. 22A-22D.

[3] = system: partial meniscectomy/ACL transection rat model of surgical induced osteoarthritis; test: Morphological evaluation of the joint surfaces (osteophyte, gross surface, articular surface damage), Example 6; format: in vivo
Procedure: Morphological evaluation of the joint surfaces was performed using digital images of the joint. The parameters evaluated included percentage of articular surface damage of the proximal tibia calculated as the area of lesions divided by the total condylar surface area, gross surface score and osteophyte score as described (Yanagisawa et al. BMC Musculoskeletal Disorders. April 2016; 17:188).
The gross finding score in the articular cartilage was graded as follows: • (i) Grade 1—intact articular surface; • (ii) Grade 2—minimal osteophyte; • (iii) Grade 3—over spur formation; • (iv) Grade 4—width of erosion area 0 to 0.5 mm • (v) Grade 5—width of erosion area 0.5 to 1 mm. • (vi) Grade 6—width erosion area 1 to 1.5 mm • (vii) Grade 7—width of erosion area 1.5 to 2.0 mm • (viii) Grade 8—width of erosion area >2.0 mm
The osteophyte score was graded as follows: • (i) Grade 0—normal around the medial tibia; • (ii) Grade 1—osteophyte formation ⅓ around the medial tibia; • (iii) Grade 2—osteophyte formation halfway around the medial tibia; • (iv) Grade 3—osteophyte formation ⅔ around the medial tibia; • (v) Grade 4—osteophyte formation all around the medial tibia.

[4] = system: partial meniscectomy/ACL transection rat model of surgical induced osteoarthritis and pain induced incapacitance; test: Weight bearing (incapacitance tester) in rat partial meniscectomy/ACL transection model, Example 5; format: in vivo
Procedure: Rats were allowed to acclimatize for 1 week, followed by assessment of their weight bearing preference using an incapacitance meter. Unilateral medical meniscectomy and anterior cruciate ligament ligation (MMX/ACLT) surgery was performed on the right knee of a subject rat. Weight bearing preference was tested before and after surgery. After 2 weeks, treatments with both intra-articular (1) and. intra-peritoneal (6) administrations of EPM-301 began in the EPM-301 group. Weight bearing preference was then assessed 4 and 7 days after the start of therapy.
Wistar Rats (HsdHan female rats 225-249 grams) were acquired from Envigo. The rats were evaluated using an incapacitance tester. They were tested pre-operation, one-week post-operation, two weeks post-operation, prior to injection, 4 and 7 days post injections.
EPM-301 was dissolved in a solution mixture of 1:1:18 EtOH:cremophor:seline to a final concentration of 3.5 mg/mL.
Intra-articular (i.a.) injection was carried out with 100 uL and intra-peritoneal (i.p.) injections were carried out with 150 uL. All were injected i.a. in the first day. EPM-301 was injected via i.p. administration on the first day, and for 5 additional days everyday via i.p. administration.
Student's t-test was performed at the last follow-up time to determine effect of the therapy as primary endpoint. The level of significance was 0.05 alpha. ANOVA was used to compare all time points, a post-hob analysis with the Scheffe all comparisons method was performed. Calculations were performed using the Analyze-it Excel add-on function.
The percentage weight bearing was calculated as the amount of weight born (in grams) on the right hind limb divided by the amount of weight born on the left hind limb. The ratio was expressed as percentage weight bearing. There were 6 animals in the EPM-301 treated group and 4 animals in the control group.

## C=C(C)[C@@H]1CCC(C)=CC1c1c(O)cc(CCCCC)c(C(=O)OC)c1O (stereo partly shown) [EPM-301, cannabidiolic acid methyl ester]
[1]
  amount of fat accumulation in hepatocytes: significantly reduce; also recorded: ineffective
[2]; 10 mg/kg
  therapeutic effect: not enough to induce a therapeutic effect
[2]; 40 mg/kg by gavage, compared to CBD and EPM-302 (FIG. 17)
  weight loss: reduced
[2]; 40 mg/kg, versus EPM-302 and untreated mice, similar to prednisone (FIG. 18)
  colon length: greater/longer
[2]; as compared to EPM-302, ELISA (FIG. 19)
  colon TNFα: lower
[2]; as compared to EPM-302, ELISA (FIG. 20)
  blood IL-6: lower
[2]; versus EPM-302 treated subjects (FIG. 21)
  MEICS score: lower
[3]; as compared to the HA and CS treated groups (FIG. 4)
  gross surface score: improvement
[3]; as compared to the HA and CS treated groups (FIG. 5)
  percentage of articular surface damage: less
[3]; relative to the hyaluronic acid and the corticosteroid treatments (FIG. 3)
  osteophyte score: superiority
[4]; following injection, 3.5 mg/mL, 100 uL i.a. once plus 150 uL i.p. on 6 days, control group 59.0%
  Rt limb weight bearing: 106.7%
[4]; immediately prior to injection, two weeks following model induction (baseline before treatment)
  weight bearing, average value: 42.25%
[4]; prior to operation (baseline of the group, before treatment)
  Rt/Lt weight bearing, average value: 139.6%
